Numbers after ± are expanded uncertainties.
Assay: activity coefficient (dimensionless); of the first substance listed, at infinite dilution; xn = mol fraction of the nth substance listed
Conditions: 328.15 K; 100 kPa; Liquid; Chromatography; x1 = 0

Compound | activity coefficient
CCCCCCCCC [nonane] + CCCC[P+](CC)(CCCC)CCCC.CCOP(=O)([O-])OCC | 5.79 ± 0.39
C=CCCCCCC [oct-1-ene] + CCCC[P+](CC)(CCCC)CCCC.CCOP(=O)([O-])OCC | 3.68 ± 0.25
CCCCCCCC [octane] + CCCC[P+](CC)(CCCC)CCCC.CCOP(=O)([O-])OCC | 4.87 ± 0.33
CCCC(C)=O [pentan-2-one] + CCCC[P+](CC)(CCCC)CCCC.CCOP(=O)([O-])OCC | 1.03 ± 0.06
CCC(=O)CC [pentan-3-one] + CCCC[P+](CC)(CCCC)CCCC.CCOP(=O)([O-])OCC | 1.02 ± 0.06
CCCCC [pentane] + CCCC[P+](CC)(CCCC)CCCC.CCOP(=O)([O-])OCC | 2.91 ± 0.2
c1ccncc1 [pyridine] + CCCC[P+](CC)(CCCC)CCCC.CCOP(=O)([O-])OCC | 0.544 ± 0.04
C=Cc1ccccc1 [styrene] + CCCC[P+](CC)(CCCC)CCCC.CCOP(=O)([O-])OCC | 0.971 ± 0.061
C1CCOC1 [tetrahydrofuran] + CCCC[P+](CC)(CCCC)CCCC.CCOP(=O)([O-])OCC | 0.938 ± 0.059
c1ccsc1 [thiophene] + CCCC[P+](CC)(CCCC)CCCC.CCOP(=O)([O-])OCC | 0.58 ± 0.041
Cc1ccccc1 [toluene] + CCCC[P+](CC)(CCCC)CCCC.CCOP(=O)([O-])OCC | 1.2 ± 0.08
O [water] + CCCC[P+](CC)(CCCC)CCCC.CCOP(=O)([O-])OCC | 0.101 ± 0.03

Same assay, conditions: 338.15 K; 100 kPa; Liquid; Chromatography; x1 = 0

Compound | activity coefficient
CCCCCCCCC [nonane] + CCCC[P+](CC)(CCCC)CCCC.CCOP(=O)([O-])OCC | 5.6 ± 0.38
C=CCCCCCC [oct-1-ene] + CCCC[P+](CC)(CCCC)CCCC.CCOP(=O)([O-])OCC | 3.6 ± 0.25
CCCCCCCC [octane] + CCCC[P+](CC)(CCCC)CCCC.CCOP(=O)([O-])OCC | 4.74 ± 0.32
CCCC(C)=O [pentan-2-one] + CCCC[P+](CC)(CCCC)CCCC.CCOP(=O)([O-])OCC | 1.03 ± 0.06
CCC(=O)CC [pentan-3-one] + CCCC[P+](CC)(CCCC)CCCC.CCOP(=O)([O-])OCC | 1.02 ± 0.06
CCCCC [pentane] + CCCC[P+](CC)(CCCC)CCCC.CCOP(=O)([O-])OCC | 2.85 ± 0.19
c1ccncc1 [pyridine] + CCCC[P+](CC)(CCCC)CCCC.CCOP(=O)([O-])OCC | 0.545 ± 0.04
C=Cc1ccccc1 [styrene] + CCCC[P+](CC)(CCCC)CCCC.CCOP(=O)([O-])OCC | 0.975 ± 0.061
C1CCOC1 [tetrahydrofuran] + CCCC[P+](CC)(CCCC)CCCC.CCOP(=O)([O-])OCC | 0.926 ± 0.059
c1ccsc1 [thiophene] + CCCC[P+](CC)(CCCC)CCCC.CCOP(=O)([O-])OCC | 0.587 ± 0.042
Cc1ccccc1 [toluene] + CCCC[P+](CC)(CCCC)CCCC.CCOP(=O)([O-])OCC | 1.19 ± 0.08
O [water] + CCCC[P+](CC)(CCCC)CCCC.CCOP(=O)([O-])OCC | 0.105 ± 0.03

Same assay, conditions: 348.15 K; 100 kPa; Liquid; Chromatography; x1 = 0

Compound | activity coefficient
CCCCCCCCC [nonane] + CCCC[P+](CC)(CCCC)CCCC.CCOP(=O)([O-])OCC | 5.43 ± 0.37
C=CCCCCCC [oct-1-ene] + CCCC[P+](CC)(CCCC)CCCC.CCOP(=O)([O-])OCC | 3.52 ± 0.24
CCCCCCCC [octane] + CCCC[P+](CC)(CCCC)CCCC.CCOP(=O)([O-])OCC | 4.6 ± 0.31
CCCC(C)=O [pentan-2-one] + CCCC[P+](CC)(CCCC)CCCC.CCOP(=O)([O-])OCC | 1.02 ± 0.06
CCC(=O)CC [pentan-3-one] + CCCC[P+](CC)(CCCC)CCCC.CCOP(=O)([O-])OCC | 1.02 ± 0.06
CCCCC [pentane] + CCCC[P+](CC)(CCCC)CCCC.CCOP(=O)([O-])OCC | 2.8 ± 0.19
c1ccncc1 [pyridine] + CCCC[P+](CC)(CCCC)CCCC.CCOP(=O)([O-])OCC | 0.548 ± 0.04
C=Cc1ccccc1 [styrene] + CCCC[P+](CC)(CCCC)CCCC.CCOP(=O)([O-])OCC | 0.98 ± 0.061
C1CCOC1 [tetrahydrofuran] + CCCC[P+](CC)(CCCC)CCCC.CCOP(=O)([O-])OCC | 0.919 ± 0.058
c1ccsc1 [thiophene] + CCCC[P+](CC)(CCCC)CCCC.CCOP(=O)([O-])OCC | 0.595 ± 0.042
Cc1ccccc1 [toluene] + CCCC[P+](CC)(CCCC)CCCC.CCOP(=O)([O-])OCC | 1.18 ± 0.08
O [water] + CCCC[P+](CC)(CCCC)CCCC.CCOP(=O)([O-])OCC | 0.109 ± 0.03

Same assay, conditions: 358.15 K; 100 kPa; Liquid; Chromatography; x1 = 0

Compound | activity coefficient
CCCCCCCCC [nonane] + CCCC[P+](CC)(CCCC)CCCC.CCOP(=O)([O-])OCC | 5.27 ± 0.36
C=CCCCCCC [oct-1-ene] + CCCC[P+](CC)(CCCC)CCCC.CCOP(=O)([O-])OCC | 3.45 ± 0.23
CCCCCCCC [octane] + CCCC[P+](CC)(CCCC)CCCC.CCOP(=O)([O-])OCC | 4.47 ± 0.3
CCCC(C)=O [pentan-2-one] + CCCC[P+](CC)(CCCC)CCCC.CCOP(=O)([O-])OCC | 1.02 ± 0.06
CCC(=O)CC [pentan-3-one] + CCCC[P+](CC)(CCCC)CCCC.CCOP(=O)([O-])OCC | 1.02 ± 0.06
CCCCC [pentane] + CCCC[P+](CC)(CCCC)CCCC.CCOP(=O)([O-])OCC | 2.75 ± 0.19
c1ccncc1 [pyridine] + CCCC[P+](CC)(CCCC)CCCC.CCOP(=O)([O-])OCC | 0.549 ± 0.04
C=Cc1ccccc1 [styrene] + CCCC[P+](CC)(CCCC)CCCC.CCOP(=O)([O-])OCC | 0.983 ± 0.062
C1CCOC1 [tetrahydrofuran] + CCCC[P+](CC)(CCCC)CCCC.CCOP(=O)([O-])OCC | 0.907 ± 0.058
c1ccsc1 [thiophene] + CCCC[P+](CC)(CCCC)CCCC.CCOP(=O)([O-])OCC | 0.601 ± 0.042
Cc1ccccc1 [toluene] + CCCC[P+](CC)(CCCC)CCCC.CCOP(=O)([O-])OCC | 1.16 ± 0.07
O [water] + CCCC[P+](CC)(CCCC)CCCC.CCOP(=O)([O-])OCC | 0.112 ± 0.03

Same assay, conditions: 368.15 K; 100 kPa; Liquid; Chromatography; x1 = 0

Compound | activity coefficient
CCCCCCCCC [nonane] + CCCC[P+](CC)(CCCC)CCCC.CCOP(=O)([O-])OCC | 5.13 ± 0.35
C=CCCCCCC [oct-1-ene] + CCCC[P+](CC)(CCCC)CCCC.CCOP(=O)([O-])OCC | 3.39 ± 0.23
CCCCCCCC [octane] + CCCC[P+](CC)(CCCC)CCCC.CCOP(=O)([O-])OCC | 4.37 ± 0.3
CCCC(C)=O [pentan-2-one] + CCCC[P+](CC)(CCCC)CCCC.CCOP(=O)([O-])OCC | 1.01 ± 0.06
CCC(=O)CC [pentan-3-one] + CCCC[P+](CC)(CCCC)CCCC.CCOP(=O)([O-])OCC | 1.02 ± 0.06
CCCCC [pentane] + CCCC[P+](CC)(CCCC)CCCC.CCOP(=O)([O-])OCC | 2.7 ± 0.18
c1ccncc1 [pyridine] + CCCC[P+](CC)(CCCC)CCCC.CCOP(=O)([O-])OCC | 0.55 ± 0.04
C=Cc1ccccc1 [styrene] + CCCC[P+](CC)(CCCC)CCCC.CCOP(=O)([O-])OCC | 0.987 ± 0.062
C1CCOC1 [tetrahydrofuran] + CCCC[P+](CC)(CCCC)CCCC.CCOP(=O)([O-])OCC | 0.899 ± 0.057
c1ccsc1 [thiophene] + CCCC[P+](CC)(CCCC)CCCC.CCOP(=O)([O-])OCC | 0.607 ± 0.042
Cc1ccccc1 [toluene] + CCCC[P+](CC)(CCCC)CCCC.CCOP(=O)([O-])OCC | 1.15 ± 0.07
O [water] + CCCC[P+](CC)(CCCC)CCCC.CCOP(=O)([O-])OCC | 0.116 ± 0.03

Assay: not given
Conditions: 298.15 K; 101.33 kPa; Liquid; Vibrating tube method

Compound | mass density
CCCC[P+](CC)(CCCC)CCCC.CCOP(=O)([O-])OCC [tributylethylphosphonium diethylphosphate] | 996.1 ± 10 kg/m3

Same assay, conditions: 303.15 K; 101.33 kPa; Liquid; Vibrating tube method

Compound | mass density
CCCC[P+](CC)(CCCC)CCCC.CCOP(=O)([O-])OCC [tributylethylphosphonium diethylphosphate] | 992.58 ± 10 kg/m3

Same assay, conditions: 308.15 K; 101.33 kPa; Liquid; Vibrating tube method

Compound | mass density
CCCC[P+](CC)(CCCC)CCCC.CCOP(=O)([O-])OCC [tributylethylphosphonium diethylphosphate] | 989.06 ± 10 kg/m3

Same assay, conditions: 313.15 K; 101.33 kPa; Liquid; Vibrating tube method

Compound | mass density
CCCC[P+](CC)(CCCC)CCCC.CCOP(=O)([O-])OCC [tributylethylphosphonium diethylphosphate] | 985.55 ± 10 kg/m3

Same assay, conditions: 318.15 K; 101.33 kPa; Liquid; Vibrating tube method

Compound | mass density
CCCC[P+](CC)(CCCC)CCCC.CCOP(=O)([O-])OCC [tributylethylphosphonium diethylphosphate] | 982.04 ± 10 kg/m3

Same assay, conditions: 323.15 K; 101.33 kPa; Liquid; Vibrating tube method

Compound | mass density
CCCC[P+](CC)(CCCC)CCCC.CCOP(=O)([O-])OCC [tributylethylphosphonium diethylphosphate] | 978.53 ± 10 kg/m3

Same assay, conditions: 328.15 K; 101.33 kPa; Liquid; Vibrating tube method

Compound | mass density
CCCC[P+](CC)(CCCC)CCCC.CCOP(=O)([O-])OCC [tributylethylphosphonium diethylphosphate] | 975.03 ± 10 kg/m3

Same assay, conditions: 333.15 K; 101.33 kPa; Liquid; Vibrating tube method

Compound | mass density
CCCC[P+](CC)(CCCC)CCCC.CCOP(=O)([O-])OCC [tributylethylphosphonium diethylphosphate] | 971.53 ± 10 kg/m3

Same assay, conditions: 338.15 K; 101.33 kPa; Liquid; Vibrating tube method

Compound | mass density
CCCC[P+](CC)(CCCC)CCCC.CCOP(=O)([O-])OCC [tributylethylphosphonium diethylphosphate] | 968.03 ± 10 kg/m3

Same assay, conditions: 343.15 K; 101.33 kPa; Liquid; Vibrating tube method

Compound | mass density
CCCC[P+](CC)(CCCC)CCCC.CCOP(=O)([O-])OCC [tributylethylphosphonium diethylphosphate] | 964.53 ± 10 kg/m3

Same assay, conditions: 348.15 K; 101.33 kPa; Liquid; Vibrating tube method

Compound | mass density
CCCC[P+](CC)(CCCC)CCCC.CCOP(=O)([O-])OCC [tributylethylphosphonium diethylphosphate] | 961.01 ± 10 kg/m3

Same assay, conditions: 353.15 K; 101.33 kPa; Liquid; Vibrating tube method

Compound | mass density
CCCC[P+](CC)(CCCC)CCCC.CCOP(=O)([O-])OCC [tributylethylphosphonium diethylphosphate] | 957.5 ± 10 kg/m3

Same assay, conditions: 358.15 K; 101.33 kPa; Liquid; Vibrating tube method

Compound | mass density
CCCC[P+](CC)(CCCC)CCCC.CCOP(=O)([O-])OCC [tributylethylphosphonium diethylphosphate] | 954 ± 10 kg/m3

Same assay, conditions: 363.15 K; 101.33 kPa; Liquid; Vibrating tube method

Compound | mass density
CCCC[P+](CC)(CCCC)CCCC.CCOP(=O)([O-])OCC [tributylethylphosphonium diethylphosphate] | 950.49 ± 10 kg/m3

Same assay, conditions: 368.15 K; 101.33 kPa; Liquid; Vibrating tube method

Compound | mass density
CCCC[P+](CC)(CCCC)CCCC.CCOP(=O)([O-])OCC [tributylethylphosphonium diethylphosphate] | 946.98 ± 10 kg/m3

Same assay, conditions: Glass; DSC

Compound | Glass transition temperature
CCCC[P+](CC)(CCCC)CCCC.CCOP(=O)([O-])OCC [tributylethylphosphonium diethylphosphate] | -71.34 ± 1 °C

— the NIST ThermoML archive (doi:10.1021/acs.jced.5b00980)
